Measured values from US20150224190A1, “Combination of a phosphoinositide 3-kinase inhibitor and an inhibitor of the IL-8/CXCR interaction” (priority 2012, published 2015).

How the values were obtained:
pS6 = assay: Target inhibition after single doses: pS6 levels in breast cancer lines; assay type: cell-based, human; conditions: up to 20 hours after treatment, MDA 468, MDA 231 LM2 and mouse 4T-1 breast cancer lines
Description: MDA231, lung metastatic subline MDA231 LM2 (Minn et al., 2005) and SUM159 human breast cancer cells, as well as the Balb/c tumor-derived mammary cancer lines 4T-1 and 168FARN (Aslakson and Miller, 1992), were propagated as previously described. All other cell lines were obtained from and were cultured according to the protocols of ATCC. For treatment with inhibitors, cells were synchronized without serum overnight and then supplemented with culture medium containing the inhibitor(s). For experiments with doxycycline-inducible shRNAs, 500 ng/ml of doxycycline (Sigma) was added to the medium and experiments performed 48 h later. Cell viability assays, cell cycle and cell death measurements were performed at 0.5% FCS in order to avoid masking effects of growth factors present under full-serum conditions.
(§1) Cells for Western Blotting and ELISA were lysed with RIPA buffer. […]
The present inventors applied single doses of COMPOUND A, a dual PI3K and mTOR inhibitor, and analyzed target inhibition and potential signaling pathway crosstalks after 2, 4, 8 and 20 h hours of treatment. […] While RAD001 readily activated JAK2 starting at 4 hours of treatment, they observed a later response with BKM120 treatment starting at 8 hours after adding the compound. […]

JAK2/STAT5 = JAK2/STAT5 activation in human primary triple-negative breast tumors grown in immunodeficient mice; assay type: in vivo; conditions: 30 mg/kg BEZ235 for 4 days vs vehicle
Description: FIG. 4. BEZ235 treatment activates JAK2/STAT5 and IL-8 secretion in human primary triple-negative breast tumors Immunoblots of lysates from primary triple-negative breast tumors grown in immunodeficient mice and treated for 4 days with 30 mg/kg BEZ235 or vehicle (VHC). pJAK2 levels were measured in triplicate by ELISA and normalized to total JAK2 levels (Y-axis).
as §1
For assessing pJAK2 levels, an ELISA assay (Tyr1007/1008, Invitrogen) was applied because of cross-reactivity of all pJAK2 antibodies tested. Interleukin-8 levels in RIPA lysates, cell culture supernatants and mouse tail vein blood plasma were measured by ELISA, as well (Biolegend). […]

Cn1c(=O)n(-c2ccc(C(C)(C)C#N)cc2)c2c3cc(-c4cnc5ccccc5c4)ccc3ncc21 [COMPOUND A, 2-methyl-2-[4-(3-methyl-2-oxo-8-quinolin-3-yl-2,3-dihydro-imidazo[4,5-c]quinolin-1-yl)-phenyl]-propionitrile]
pS6 levels (pS6): completely blocked
JAK2/STAT5 activation (pJAK2 normalized to total JAK2, immunoblots) (JAK2/STAT5): activates
